This is an account of results in patent US11919932B2, “HMGN partial peptide and cancer therapy using the same” (The University of Tokyo, priority 2018, dated 2024).

Assay [1] deals with Colon26 large intestine cancer cells. In words: Colon26 tumor-bearing mice, HMGN peptide in combination with anti-PD-L1 antibody, tumor volume. The class given is in vivo, mouse. Conditions: for growth of Colon26 solid tumor, tumor volume 26 days after tumor cell implantation (FIG. 5, FIG. 6): peptide equimolar to Pep1 300 ng/mouse (two doses, common ratio 5, for Pep1ΔN2 and Pep1 mutant), vs anti-PD-L1 alone; for anti-tumor effect compared with Pep1 (FIG. 11) / anti-tumor effect, tumor volume 24 days after tumor implantation (FIG. 11): same molar dose as 300 ng of Pep1; for anti-tumor effect, tumor volume 24 days after tumor implantation (FIG. 11): vs anti-PD-L1 antibody single administration group; for tumor growth (time-dependent change in tumor volume, FIG. 7): Pep1 60 and 300 ng/mouse, other peptides three equimolar doses, common ratio 5 (Pep1core 8 to 200 ng/mouse). An excerpt:
(§1) Seven-week-old male BALB/c mice were used in groups of 8 mice, and Colon26 large intestine cancer cells were subcutaneously transplanted into the right flank at 2×10^5 cells/mouse.
(§2) An anti-mouse PD-L1 antibody (clone 10F.9G2) and an anti-mouse CD4 depleting antibody (clone GK1.5) were purchased from BioXcell.
(§3) The HMGN peptide was intraperitoneally administered at a dose described below four times in total at 9, 14, 17 and 20 days after tumor cell implantation. The anti-mouse PD-L1 antibody was intraperitoneally administered at 200 μg/mouse four times in total at 4, 8, 14 and 18 days after tumor cell implantation. The anti-mouse CD4 antibody was intraperitoneally administered at a dose of 200 μg/mouse twice in total at 5 and 9 days after tumor cell implantation. The long diameter and short diameter of the solid tumor were measured every 3 to 4 days, and tumor volume was calculated by the following calculation formula. Tumor volume (mm^3)=(Long diameter; mm)×(Short diameter; mm)^2×0.5236

The test system is the same in assay [2]. The assay is described as follows: Colon26 tumor-bearing mice, HMGN peptide single administration, tumor volume. The class given is in vivo, mouse. Conditions: Pep1 alone; vs control group. How it is done:
as §1, §3
A partial fragment (human HMGN1 NBD peptide 1; Pep1, SEQ ID NO: 3) of human HMGN1 (SEQ ID NO: 17) corresponding to mPep1 was prepared and administered to Colon26 tumor-bearing mice alone or in combination with an anti-PD-L1 antibody (200 μg/mouse), and the anti-tumor effect was investigated.

Assay [3] shares this test system. The assay is described as follows: Colon26 tumor-bearing mice, HMGN peptide in combination with anti-CD4 antibody, tumor volume. The class given is in vivo. Conditions: Pep1 800 ng/mouse + anti-CD4 antibody 200 μg/mouse.
Source text: as §1, §2, §3
The partial peptide of human HMGN1, Pep1 (800 ng/mouse), was administered to Colon26 tumor-bearing mice in combination with an anti-CD4 antibody (200 μg/mouse), and the anti-tumor effect was investigated.

The mark [4] stands for this setting: + anti-PD-L1 antibody 200 μg/mouse.

Some results are limits rather than exact numbers.

For the substance “Human HMGN1 peptide O (KEEPKRRSARLSAKPPAKVEAKPKKAAAKDKSSDKK; Human HMGN1 peptide O (PepO)) [known HMGN peptide of U.S. Pat. No. 8,227,417, reference compound]”, the “complete regression of solid tumors” value in assay [1] (954 ng/mouse, + anti-PD-L1 antibody 200 μg/mouse) amounted to 3 mice. Further, the “anti-tumor effect, tumor volume 24 days after tumor implantation (FIG. 9, FIG. 10)” value in assay [1] (dose of 318 ng/mouse (equimolar to Pep1 300 ng/mouse), + anti-PD-L1 antibody 200 μg/mouse) was “no anti-tumor effect”. Further, in assay [1] (triple dose of 954 ng/mouse, + anti-PD-L1 antibody 200 μg/mouse), the “tumor growth, tumor volume 24 days after tumor implantation (FIG. 9, FIG. 10)” value is “significantly suppressed tumor growth”.

Consider “Human HMGN1 NBD-peptide 1 Δ C (SSAEGAAKEEPKRRSARLSAKPPA; Human HMGN1 NBD-peptide 1 delta-C (Pep1 delta-C)) [Pep1 ΔC, C-terminal 13 residues of Pep1 removed]”, for which the “growth of Colon26 solid tumor, tumor volume 26 days after tumor cell implantation (FIG. 5, FIG. 6)” value (shortened to “growth of Colon26 solid tumor … (FIG. 5, FIG. 6)”) in assay [1] (setting [4]) is “anti-tumor effect of the peptide was lost”.

Regarding “Human HMGN1 NBD-peptide 1 Δ N3 (SARLSAKPPAKVEAKPKKAAAKD; Human HMGN1 NBD-peptide 1 delta-N3 (Pep1 delta-N3)) [Pep1ΔN3, N-terminal 14 residues of Pep1 removed]”, the “growth of Colon26 solid tumor … (FIG. 5, FIG. 6)” value in assay [1] (setting [4]) is listed as “ineffective”.

As to “HMGN5 NBD-peptide (GQGDMRQEPKRRSARLSAMLVPVTPEVKPKRTSSSRKMKTKSD; Human HMGN5 NBD-peptide (N5Pep)) [PepN5, partial region containing NBD of human HMGN5]”, in assay [1] (+ anti-PD-L1 antibody), the “anti-tumor effect compared with Pep1 (FIG. 11)” value is given as “at the same level as Pep1” and the “anti-tumor effect, tumor volume 24 days after tumor implantation (FIG. 11)” value is reported as “significant anti-tumor effects”.

Regarding Human HMGN4 NBD-peptide [PepN4], in assay [1] (+ anti-PD-L1 antibody), the “anti-tumor effect compared with Pep1 (FIG. 11)” value is “at the same level as Pep1” and the “anti-tumor effect, tumor volume 24 days after tumor implantation (FIG. 11)” value was “significant anti-tumor effects”.

As to “Human HMGN1 NBD-peptide 1 mutant (SAEGAAKEEPKDDSADLSAKPPAKVEAKPKKAAAKD; Human HMGN1 NBD-peptide 1 mutant (Pep1 mutant)) [R→D mutant of Pep1, N-terminal 1 residue removed]”, the “growth of Colon26 solid tumor … (FIG. 5, FIG. 6)” value in assay [1] (setting [4]) was “same anti-tumor action as Pep1”.

In the case of “Human HMGN1 NBD-peptide 1 Δ C1 (SSAEGAAKEEPKRRSARLSAKPPAKVEAKPKK; Human HMGN1 NBD-peptide 1 delta-C1 (Pep1 delta-C1)) [Pep1ΔC1, C-terminal 5 residues of Pep1 removed]”, the “complete regression of solid tumors” value in assay [1] (dose of 53 ng, + anti-PD-L1 antibody) is reported as 1 case; in assay [1] (doses of 11 and 265 ng/mouse, + anti-PD-L1 antibody) it was 3 cases out of 8 cases. Also, in assay [1] (setting [4]), the “growth of Colon26 solid tumor … (FIG. 5, FIG. 6)” value is reported as “significantly suppressed”.

“Human HMGN1 NBD-peptide 1 Δ N2 (EPKRRSARLSAKPPAKVEAKPKKAAAKD; Human HMGN1 NBD-peptide 1 delta-N2 (Pep1 delta-N2)) [Pep1ΔN2, N-terminal 9 residues of Pep1 removed]”: in assay [1] (setting [4]), the “tumor growth (time-dependent change in tumor volume, FIG. 7)” value is “synergistic effect” and the “growth of Colon26 solid tumor … (FIG. 5, FIG. 6)” value is recorded as “similarly suppressed solid tumors”. In addition, the “solid tumors completely regressed” value in assay [1] (dose of 9.4 ng/mouse, + anti-PD-L1 antibody) was 4 cases out of 8 cases.

On to “Human HMGN1 NBD-peptide 1 (SSAEGAAKEEPKRRSARLSAKPPAKVEAKPKKAAAKD; Human HMGN1 NBD-peptide 1 (Pep1))”, for which the “growth of Colon26 solid tumor, tumor volume 23 days after tumor implantation (FIG. 3)” value in assay [2] is on record as “significantly suppressed growth of Colon26 solid tumor in a dose-dependent manner”. The “anti-tumor effect (FIG. 3)” value in assay [1] (3 ng/mouse and 30 ng/mouse, + anti-PD-L1 antibody) is listed as “effective”. In assay [1] (setting [4]), the “tumor growth (time-dependent change in tumor volume, FIG. 7)” value is on record as “synergistically suppressed tumor growth” and the “growth of Colon26 solid tumor … (FIG. 5, FIG. 6)” value is reported as “significantly suppressed”. For the same substance, in assay [1] (Pep1 + anti-PD-L1 antibody 200 μg/mouse), the “tumor growth (FIG. 3, FIG. 4)” value is “synergistically suppressed tumor growth”. Further, the “potency difference in the anti-tumor action between PepO and Pep1” value in assay [1] (both + anti-PD-L1 antibody) is given as no less than 300 times. Also, the “Colon26 solid tumor growth (FIG. 12, FIG. 13; tumor volume 24 days after implantation)” value in assay [3] was “synergistically suppressed Colon26 solid tumor growth”.

“Human HMGN1 NBD-peptide 1 Δ N1 (AAKEEPKRRSARLSAKPPAKVEAKPKKAAAKD; Human HMGN1 NBD-peptide 1 delta-N1 (Pep1 delta-N1)) [Pep1ΔN1, N-terminal 5 residues of Pep1 removed]”: in assay [1] (doses of 53 and 267 ng/mouse, + anti-PD-L1 antibody 200 μg/mouse), the “Colon26 solid tumor growth (FIG. 5, FIG. 6)” value was “significantly suppressed”.

In the case of “mouse HMGN1 NBD-peptide 2 (VQIKGKRGAKGKQADVADQQTTELPAENGETENQSPASEE; mouse HMGN1 NBD-peptide 2 (mPep2)) [region at the C-terminal side of mouse HMGN1 NBD]”, in assay [1] (doses of 30, 300 ng/mouse (mPep2 same molar number), + anti-PD-L1 antibody, vs control group), the “tumor volume 24 days after Colon26 tumor cell implantation (FIG. 2)” value is “ineffective”. For the same substance, the “tumor growth (time-dependent change in tumor volume, FIG. 1)” value in assay [1] (mPep1 30 or 300 ng/mouse, mPep2 33 or 330 ng/mouse, i.p. four times, + anti-PD-L1 antibody 200 μg/mouse) was “no combined effect”.

With “Human HMGN1 NBD-peptide 1 core (EPKRRSARLSAKPPAKVEAKPKK; Human HMGN1 NBD-peptide1 core (Pep1core)) [10th to 32nd residues of Pep1]”, in assay [1] (setting [4]), the “tumor growth (time-dependent change in tumor volume, FIG. 7)” value was “suppressed in a dose-dependent manner”. For the same substance, in assay [1] (doses of 40 and 200 ng/mouse, + anti-PD-L1 antibody), the “tumor volume 27 days after implantation, difference from anti-PD-L1 antibody single administration group (FIG. 8)” value is “significant difference was observed”.

On to “Human HMGN1 NBD-peptide 1 Δ C2 (SSAEGAAKEEPKRRSARLSAKPPAKVEA; Human HMGN1 NBD-peptide 1 delta-C2 (Pep1 delta-C2)) [Pep1ΔC2, C-terminal 9 residues of Pep1 removed]”, for which, in assay [1] (setting [4]), the “growth of Colon26 solid tumor … (FIG. 5, FIG. 6)” value is listed as “ineffective”.

For Human HMGN3 NBD-peptide [PepN3], the “anti-tumor effect, tumor volume 24 days after tumor implantation (FIG. 11)” value in assay [1] (+ anti-PD-L1 antibody) is recorded as “no anti-tumor effect”.

As to Human HMGN2 NBD-peptide [PepN2], in assay [1] (+ anti-PD-L1 antibody), the “anti-tumor effect compared with Pep1 (FIG. 11)” value is recorded as “at the same level as Pep1” and the “anti-tumor effect, tumor volume 24 days after tumor implantation (FIG. 11)” value is on record as “significant anti-tumor effects”.
